Results from US6020374A, “Biologically active synthetic dye compounds” (priority 1998, dated 2000).

Key:
cells = settings: apoptosis induced by growth factor deprivation or by drugs such as cycloheximide (CX); cited from earlier work
PI3-kinase = assay: In vivo PI3-kinase activity in rat liver; settings: Sprague-Dawley male rats, portal vein, 5 mins. after injection, EB 20 mg/rat, insulin 1 u/rat
Procedure: B--Induction of PI3-kinase. PI3-kinase activity, 5 mins. after injection was assayed as described in FIG. 9C. The results are representative of 2 to 4 independent experiments.
(§1) EB (20 mg/rat) or insulin (1 u/rat) was injected into about 120 g weighing Sprague-Dawley male rats, via the portal vein. Control rats were injected with saline (SAL) alone. The rats were killed and the livers excised and frozen in liquid nitrogen at the indicated times.

[1] = system: IR, IRS-1 and the 85-kDa regulatory subunit of PI3-kinase; assay: In vivo tyrosine phosphorylation of the IR cascade in rat liver; settings: Sprague-Dawley male rats, portal vein injection, EB 20 mg/rat, insulin 1 u/rat
Procedure: A--Immunoblot analysis. Rat liver extracts were subjected to immunoprecipitation and blotting with the indicated antibodies, as described in the legend to FIG. 9A.
as §1

MAPKs 1 and 2 = assay: Activation of MAPKs in FaO cells; format: cell-based, rat; settings: 5 mins., EB 200 μg/ml, insulin 600 ng/ml
Procedure: (§2) FIG. 9 is the tyrosine phosphorylation of the IR cascade in Fao cells: A--Immunoblot analysis: Fao cells were deprived of serum for 20 hours, then incubated with EB, ATA, at 200 μg/ml or insulin at 600 ng/ml for 5 mins. Cell extracts were subjected to immunoprecipitation with antibodies to: IR β-subunit (αIR), IRS-1 (αIRS-1) and to IRS-2 (αIRS-2). The immunoprecipitates and total cell extracts were analyzed by SDS-PAGE. Proteins were transferred to nitrocellulose papers, and phosphotyrosine containing proteins were probed with anti-phosphotyrosine antibodies (αP-Tyr), antibody to the 85-kDa subunit of PI3-kinase (αp85) and antibodies to active MAPK (α active MAPK). The immunoblots were visualized by ECL (Amersham).
Nitrocellulose blots of proteins were incubated with the antibodies, and proteins were detected by enhanced chemiluminescence using horseradish peroxidase-labeled protein A, horseradish peroxidase-labeled anti rabbit IgG or horseradish peroxidase-labeled anti-mouse IgG.
In the rat hepatoma cell line FaO, EB and insulin, enhanced IRS-1 and IRS-2 tyrosine phosphorylation and their association with the 85-kDa regulatory subunit of the PI-kinase (FIG. 9A). PI3-kinase activity increases following its association with IRS-1 and IRS-2 (FIG. 9C). MAPKs 1 and 2 were activated by EB and insulin (FIG. 9A).

IRS-1 = IRS-1 tyrosine phosphorylation and association with p85 in FaO cells; format: cell-based, rat; settings: 5 mins., EB 200 μg/ml, insulin 600 ng/ml
Procedure: as §2
(§3) MCF-7 cells were grown in 35 or 100 mm dishes in DMEM with 5% bovine fetal serum. Rat hepato FaO cells were grown in RPMI 1640 medium supplemented with 10% fetal calf serum. Subconfluent monolayers of MCF-7 cells or FaO cells, were deprived of serum for 20 hours prior to each experiment. The medium was removed, and cells were incubated at 37° C. under the conditions as indicated for each experiment. […]
(§4) Nitrocellulose blots of proteins were incubated with the antibodies, and proteins were detected by enhanced chemiluminescence using horseradish peroxidase-labeled protein A, horseradish peroxidase-labeled anti rabbit IgG or horseradish peroxidase-labeled anti-mouse IgG. […]

IRS-2 = IRS-2 tyrosine phosphorylation and association with p85 in FaO cells; format: cell-based, rat; settings: 5 mins., EB 200 μg/ml, insulin 600 ng/ml
Procedure: as §2, §3, §4

[2] = high doses; cited from earlier work

Row | Structure (SMILES) | Protection of cells from apoptosis (cells) | PI3-kinase activity in liver (PI3-kinase) | Tyrosine phosphorylation of IR, IRS-1 and 85-kDa subunit of PI3-kinase in liver [1] | Activation of MAPKs 1 and 2 (MAPKs 1 and 2) | IRS-1 tyrosine phosphorylation and association with the 85-kDa regulatory subunit of PI-kinase (IRS-1) | IRS-2 tyrosine phosphorylation and association with the 85-kDa regulatory subunit of PI-kinase (IRS-2) | Toxicity to humans [2]
1 | O=C(O)C1=CC(=C(c2ccc(O)c(C(=O)O)c2)c2ccc(O)c(C(=O)O)c2)C=CC1=O [ATA, Aurintricarboxylic acid] | protect cells from apoptosis | – | – | – | – | – | –
2 | Cc1cc(-c2ccc(N=Nc3ccc4c(S(=O)(=O)O)cc(S(=O)(=O)O)c(N)c4c3O)c(C)c2)ccc1N=Nc1ccc2c(S(=O)(=O)O)cc(S(=O)(=O)O)c(N)c2c1O [EB, Evan's Blue] | – | increased | phosphorylated tyrosines of IR, IRS-1 and the 85-kDa of the regulatory subunit of PI3-kinase | activated | enhanced | enhanced | non-toxic to humans at high doses
